Laboratory results: patent publication US20120115896A1, “ISOGENIC HUMAN CELL LINES COMPRISING MUTATED CANCER ALLELES AND PROCESS USING THE CELL LINES” (priority 2008, published 2012)
Where two headings read alike, the source gives them in different places.

How the values were obtained:
[1] = tested on: hTERT-HME1 cells carrying BRAF (V600E) KI; assay: Drug assay: cell viability by ATP content (96 h), KI versus parental cells; ΔKI pharmarray analysis; details: for pharmarray: differential response of BRAF mutated cells versus WT: hTERT-HME1, FIG. 5H
[2] = tested on: hTERT-HME1 cells carrying KRAS (G13D) KI; assay: as above; details: for pharmarray: differential response of KRAS mutated cells versus WT: hTERT-HME1, FIG. 5H
[3] = tested on: hTERT-HME1 cells carrying PIK3CA (E545K and H1047R) KI; assay: Drug assay: cell viability by ATP content (96 h) and Hoechst/propidium iodide staining, KI versus parental cells; ΔKI pharmarray analysis
[4] = tested on: hTERT-HME1 DKI cells carrying PIK3CA (H1047R) and EGFR (delE746-A750); assay: Drug assay: cell viability by ATP content (96 h), DKI versus parental cells; ΔKI pharmarray analysis
[5] = tested on: hTERT-HME1 cells carrying EGFR (delE746-A750) KI; assay: Drug assay: cell viability by ATP content (CellTiter-Glo, 96 h), KI versus parental cells; ΔKI pharmarray analysis

Sunitinib Maleate
ΔKI BRAF ([1]; Log(M) −4.82): 0
ΔKI BRAF ([1]; Log(M) −5.30): 4.42
ΔKI BRAF ([1]; Log(M) −5.78): 0
ΔKI KRAS ([2]; Log(M) −4.82): 0
ΔKI KRAS ([2]; Log(M) −5.30): 0
ΔKI KRAS ([2]; Log(M) −5.78): 0

O=C1CCC(N2C(=O)c3ccccc3C2=O)C(=O)N1 (centres unmarked) [OGC-065]
ΔKI PIK3CA [3]: 0
ΔKI PIK3CA ([3]; Log(M) −2.05): 1.9
ΔKI PIK3CA ([3]; Log(M) −3.35): 0
ΔKI BRAF [1]: 0
ΔKI BRAF ([1]; Log(M) −2.05): 0
ΔKI BRAF ([1]; Log(M) −3.35): 0
ΔKI PIK3CA + EGFR ([4]; Log(M) −2.05): 0
ΔKI PIK3CA + EGFR ([4]; Log(M) −3.35): −0.8
ΔKI EGFR [5]: 0
ΔKI EGFR ([5]; Log(M) −2.05): 0
ΔKI EGFR ([5]; Log(M) −3.35): −0.68
ΔKI KRAS [2]: 0
ΔKI KRAS ([2]; Log(M) −2.05): 0
ΔKI KRAS ([2]; Log(M) −3.35): 0

CO[C@H]1/C=C\C=C(/C)C(=O)NC2=CC(=O)C(NCCN(C)C)=C(C[C@@H](C)C[C@H](OC)[C@H](O)[C@@H](C)/C=C(\C)[C@@H]1OC(N)=O)C2=O [17-DMAG]
ΔKI PIK3CA ([3]; Log(M) −6.19): 0
ΔKI PIK3CA ([3]; Log(M) −6.89): 0
ΔKI PIK3CA ([3]; Log(M) −7.00): 0
ΔKI PIK3CA ([3]; Log(M) −7.40): 0
ΔKI PIK3CA ([3]; Log(M) −7.70): 0
ΔKI PIK3CA ([3]; Log(M) −8.10): 0
ΔKI PIK3CA ([3]; Log(M) −8.40): 0
ΔKI BRAF ([1]; Log(M) −6.19): 0
ΔKI BRAF ([1]; Log(M) −6.89): 0
ΔKI BRAF ([1]; Log(M) −7.00): 0
ΔKI BRAF ([1]; Log(M) −7.40): 0
ΔKI BRAF ([1]; Log(M) −7.70): 0
ΔKI BRAF ([1]; Log(M) −8.10): 0
ΔKI BRAF ([1]; Log(M) −8.40): 0
ΔKI PIK3CA + EGFR ([4]; Log(M) −6.19): 1.4
ΔKI PIK3CA + EGFR ([4]; Log(M) −6.89): 4.46
ΔKI PIK3CA + EGFR ([4]; Log(M) −7.00): 0
ΔKI PIK3CA + EGFR ([4]; Log(M) −7.40): −0.12
ΔKI PIK3CA + EGFR ([4]; Log(M) −7.70): 0
ΔKI PIK3CA + EGFR ([4]; Log(M) −8.10): −1.02
ΔKI PIK3CA + EGFR ([4]; Log(M) −8.40): 0
ΔKI EGFR ([5]; Log(M) −6.19): −1.5
ΔKI EGFR ([5]; Log(M) −6.89): −12.5
ΔKI EGFR ([5]; Log(M) −7.00): 0
ΔKI EGFR ([5]; Log(M) −7.40): 0
ΔKI EGFR ([5]; Log(M) −7.70): −8.56
ΔKI EGFR ([5]; Log(M) −8.10): 0
ΔKI EGFR ([5]; Log(M) −8.40): 0
pharmarray: differential response of EGFR mutated cells versus WT ([5]; hTERT-HME1, FIG. 5B, 5E): less susceptible than their WT counterpart
ΔKI KRAS ([2]; Log(M) −6.19): 0
ΔKI KRAS ([2]; Log(M) −6.89): 0
ΔKI KRAS ([2]; Log(M) −7.00): 0
ΔKI KRAS ([2]; Log(M) −7.40): 0
ΔKI KRAS ([2]; Log(M) −7.70): 0
ΔKI KRAS ([2]; Log(M) −8.10): 0
ΔKI KRAS ([2]; Log(M) −8.40): 0

O=c1c(-c2ccc(O)cc2)coc2cc(O)cc(O)c12 [genistein, Genistein]
pharmarray: differential response of EGFR mutated cells versus WT [5]: EGFR sensitive drug cluster

CN(C)CCCn1cc(C2=C(c3c[nH]c4ccccc34)C(=O)NC2=O)c2ccccc21 [Bisindolylmaleimide I]
ΔKI PIK3CA [3]: 0
ΔKI PIK3CA ([3]; Log(M) −5.70): 0
ΔKI BRAF [1]: 0
ΔKI BRAF ([1]; Log(M) −5.70): 0
ΔKI PIK3CA + EGFR [4]: 0
ΔKI PIK3CA + EGFR ([4]; Log(M) −5.70): 0
ΔKI EGFR [5]: 0
ΔKI EGFR ([5]; Log(M) −5.70): 0
ΔKI KRAS [2]: 0
ΔKI KRAS ([2]; Log(M) −5.70): 0

O=c1[nH]cc(F)c(=O)[nH]1 [5-FU]
ΔKI PIK3CA [3]: 0
ΔKI BRAF ([1]; listed as OGC-083): 0
ΔKI PIK3CA + EGFR [4]: 0
ΔKI EGFR [5]: 0
ΔKI KRAS [2]: 0

COc1ccc2c(c1)c(CC(=O)N1CCOCC1)c(C)n2C(=O)c1ccc(Cl)cc1 [IMMA (BML-190)]
ΔKI PIK3CA [3]: 0
ΔKI PIK3CA ([3]; Log(M) −3.90): 0.72
ΔKI BRAF [1]: 0
ΔKI BRAF ([1]; Log(M) −3.90): 0
ΔKI PIK3CA + EGFR [4]: 0
ΔKI PIK3CA + EGFR ([4]; Log(M) −3.90): 0
ΔKI EGFR [5]: 0
ΔKI EGFR ([5]; Log(M) −3.90): 0
ΔKI KRAS [2]: 0
ΔKI KRAS ([2]; Log(M) −3.90): 0

COc1cc2ncnc(Nc3ccc(F)c(Cl)c3)c2cc1OCCCN1CCOCC1 [gefitinib, Gefitinib]
pharmarray: differential response of BRAF mutated cells versus WT [1]: resistant
pharmarray: differential response of KRAS mutated cells versus WT [2]: resistant

CC(C)c1nc(N(C)S(C)(=O)=O)nc(-c2ccc(F)cc2)c1/C=C/[C@@H](O)C[C@@H](O)CC(=O)O [rosuvastatin, Rosuvastatin Ca]
pharmarray: differential response of BRAF mutated cells versus WT [1]: more resistant

C=CCNC1=C2C[C@@H](C)C[C@H](OC)[C@H](O)[C@@H](C)/C=C(\C)[C@H](OC(N)=O)[C@@H](OC)/C=C\C=C(/C)C(=O)NC(=CC1=O)C2=O [17-AAG, 17-Allylamino geldanamycin]
ΔKI PIK3CA [3]: 0
ΔKI PIK3CA ([3]; Log(M) −5.70): 3
ΔKI PIK3CA ([3]; Log(M) −6.70): 0
ΔKI BRAF [1]: 0
ΔKI BRAF ([1]; Log(M) −5.70): 0.08
ΔKI BRAF ([1]; Log(M) −6.70): 0
ΔKI PIK3CA + EGFR [4]: 0
ΔKI PIK3CA + EGFR ([4]; Log(M) −5.70): 1.18
ΔKI PIK3CA + EGFR ([4]; Log(M) −6.70): 0
ΔKI EGFR [5]: −11.7
ΔKI EGFR ([5]; Log(M) −5.70): 0
ΔKI EGFR ([5]; Log(M) −6.70): 0
pharmarray: differential response of EGFR mutated cells versus WT ([5]; hTERT-HME1, FIG. 5B, 5E): less susceptible than their WT counterpart

Erlotinib mesylate
pharmarray: differential response of BRAF mutated cells versus WT [1]: resistant
sensitization in DKI cells containing both EGFR and PIK3CA alterations [4]: abrogates the sensitization seen with the EGFR KI alone
growth inhibition of EGFR delE746-A750 KI versus WT cells [5]: preferentially inhibited the growth
pharmarray: differential response of EGFR mutated cells versus WT [5]: inhibit EGFR mutated cells selectively
IC50 ([5]; read-out: IC50 values of erlotinib in EGFR mutant cells): 250 ± 140 nM
pharmarray: differential response of KRAS mutated cells versus WT [2]: resistant
